Assay results as given in patent US12428405B2, “Chalcone-based chemotherapeutic compound for triple negative breast cancer” (QATAR UNIVERSITY, priority 2019, dated 2025).
Values joined by “and” are separate entries in the source; they are usually repeats but may differ in a detail not shown here. Identical values can stand only once. “Also recorded” adds a separate entry of the source.

Legend:
HNME-E6/E7 [1] = assay: MTT cell viability on immortalized normal mammary epithelial cells; format: cell-based, human; conditions: normal cell line; 48 hours of treatment; Mean ± SEM (n = 3 × 3)
Text: (§1) Breast cancer cell lines including MDA-MB-231, MDA-MB-468, MCF-7, BT-474 and SK-BR-3 were obtained from the American Type Tissue Culture (ATCC) and maintained in complete cell culture media Gibco® RPMI 1640 (Thermo Fisher Scientific, USA) supplemented with 10% fetal bovine serum (PAN-Biotech, Aidenbach, Bavaria, Germany) and 1% penicillin/streptomycin (1×) antibiotics (Thermo Fisher Scientific, USA). Human normal mammary epithelial cells immortalized by E6/E7 of HPV type 16 (HNME-E6/E7) were used to predict potential safety of the compounds (125, 126). They were maintained in Gibco® Keratinocyte-SFM (1×) media. All cells were incubated in 5% CO2 at 37° C. incubator. Cells were maintained by routine sub-culturing in T-75 and T25 filtered tissue culture flasks.
(§2) MDA-MB-231, MDA-MB-468, MCF-7, BT-474 and HNME-E6/E7 cells were seeded overnight in 96-well plates at a concentration of 8000-10,000/well depending on their pre-calculated cell density and were incubated overnight. At 24 hours, media was replaced with fresh one. The treatment wells included 6-8 different concentrations of the compounds ranging between 0.25 μM-160 μM. […] Absorbance was recorded at a wavelength of 562 nm after 3 minutes of shaking using Infinite 200 PRO Microplate Reader (Tecan, Switzerland). Percentage of viable cells was calculated using the following formula: […]

[2] = test system: TNBC (MDA-MB-231 and MDA-MB-231) and estrogen positive (MCF-7 and BT-474) cell lines; assay: MTT cell viability, breast cancer cell line panel (summary statements); format: cell-based
Text: as §1, §2

[3] = test system: Chorioallantoic membrane (CAM) of the chicken embryos; assay: Chorioallantoic membrane (CAM) angiogenesis assay; format: in vivo; conditions: treated at embryonic day 4, read at day 8; 2 μl of 5 mM stock under coverslip
Method: Fertilized white Leghorn chicken embryos (Arab Qatari for Poultry Production, Qatar) were purchased and incubated at 60% humidity at 37° C. in MultiQuip incubator. Ethics approval was obtained from Qatar University-Institutional Bio-safety committee. The embryos were treated in ovo at embryonic day 4 with three of the synthesized chalcones (5, 13 and 14) compared to DMSO treated controls. Briefly, a small cut was made at the top of the shells of the eggs and each treatment was added under a round coverslip at 2 μl of 5 mM stock solutions. Microscopic pictures were taken at embryonic day 8. Embryos treated with compounds 13 and 14 were sacrificed at embryonic day 9 for clinical observations. Quantification of blood vessels was performed manually and the different treatment groups were compared.

HNME-E6/E7 [4] = assay: Morphological examination of normal cells; format: cell-based, human; conditions: 5 μM; 48 hours
Method: MCF-7, MDA-MB-231, MDA-MB-468 and HNME-E6/E7 cells were seeded in a 6-well plates at a concentration of 200,000-300,000 cells/well and were incubated overnight. After incubation, cells were treated with different compounds.

BT-474 = assay: MTT cell viability; format: cell-based
Text: as §1
MDA-MB-231, MDA-MB-468, MCF-7, BT-474 and HNME-E6/E7 cells were seeded overnight in 96-well plates at a concentration of 8000-10,000/well depending on their pre-calculated cell density and were incubated overnight. At 24 hours, media was replaced with fresh one. The treatment wells included 6-8 different concentrations of the compounds ranging between 0.25 μM-160 μM. At 48 hours post treatment, 10 μL MTT solution was added to each well followed by 4 hours of incubation. Afterwards, media with MTT was removed from all wells and 50 μl DMSO was added to each well to dissolve the crystals. This was followed by 5 minutes incubation. Absorbance was recorded at a wavelength of 562 nm after 3 minutes of shaking using Infinite 200 PRO Microplate Reader (Tecan, Switzerland). Percentage of viable cells was calculated using the following formula: […]

MDA-MB-468 = assay: PE Annexin V apoptosis assay (flow cytometry); format: cell-based
Method: PE Annexin V apoptosis Detection Kit (BD Pharmingen, USA) was used to quantify cell apoptosis in treated versus untreated MDA-MB-468 cells at 24 and 48 hours post treatment. Briefly, cells were seeded at a density of 300,000 cells/well in 6-well plates. Second day, media was replaced with fresh media and treatment was added. Cells were harvested following treatment and each group of cells was stained with PE Annexin V and 7-AAD Annexin V as per the protocol specified on the kit. Samples were then analyzed by Accuri C6 flow cytometer (BD Biosciences, USA). The percentages of cells (viable cells, apoptotic cells, necrotic cells and dead cells) were quantified in each of the four quadrants. Data and figures were processed using the FlowJo V10 software.

[5] = test system: BAX/bcl2 expression in MCF-7 cell line; assay: Western blot of BAX/bcl-2 expression; format: cell-based; conditions: 48 h, 5 and 10 μM; vs DMSO and colchicine
Method: (§3) Proteins were quantified with the Pierce BCA Protein Assay Kit (Thermo Scientific, USA) following cell lysis. SDS-PAGE was prepared at a concentration of 10% for all studied proteins. All samples were loaded at 40 μg per 1.5 mm 15 wells comb. Running of stained samples was performed using two steps gel electrophoresis (60 Volts for 20 minutes followed by 120 Volts for 1 hour). Afterwards, gels were transferred into PVDF membrane at 100 Voltage for 1.5-2.0 hours using wet transfer. Following transfer, PVDF membranes were blocked with 5% skimmed milk and washed three times. Primary antibodies (Table 2.2) were prepared, then PVDF membrane were incubated with them overnight with gentle shaking at 4° C. Afterwards, membranes were washed three times and incubated with their respective secondary antibodies for 1-2 hours with gentle shaking at room temperature. Pierce™ ECL Western Blotting Substrate was used to detect proteins by chemiluminescence. Blots were imaged using the ibrightCL1000 imaging system.

[6] = test system: BAX/bcl2 expression in MDA-MB-231 cell line; assay: Western blot of BAX/bcl-2 expression; format: cell-based; conditions: 48 h, 5 and 10 μM; vs DMSO and colchicine
Method: as §3

EMT markers on MCF-7 = assay: Western blot of EMT markers; format: cell-based; conditions: 5 and 10 μM
Method: as §3

[7] = test system: Epithelial Mesenchymal Transition (EMT) markers in MDA-MB-231 cells; assay: Western blot of EMT markers; format: cell-based
Method: as §3

[8] = test system: MDA-MB-231 xenografted nude mice; assay: In vivo tumor growth, xenograft model
[9] = Two-week safety and tolerability of the dose before inoculation; conditions: 10 mg/kg intraperitoneally for two weeks; n=5
[10] = 10 mg/kg i.p., three times per week, 45 days

## CS(=O)(=O)c1ccc(C(=O)/C=C/c2ccc(N(CCCl)CCCl)cc2)cc1 [Compound 13, (E)-3-(4-(Bis(2-chloroethyl)amino)phenyl)-1-(4-(methylsulfonyl)phenyl) prop-2-en-1-one]
HNME-E6/E7 [1]
  LD50 HNME-E6/E7: 32.32 ± 3.93 µM
[2]; versus HNME-E6/E7 normal cells
  selectivity, approximately similar between different breast cancer cell lines: ~3
[3]
  inhibition of blood vessels development vs control: 55.6±6.04%
HNME-E6/E7 [4]
  cell morphology of normal cells: induced morphological changes

## COc1cccc(C(=O)/C=C/c2ccc(N(CCCl)CCCl)cc2)c1 [Compound 14, (E)-3-(4-(Bis(2-chloroethyl)amino)phenyl)-1-(3-methoxyphenyl) prop-2-en-1-one]
BT-474; Homo sapiens, BT-474, 48 hours of treatment, Mean ± SEM (n = 3 × 3)
  IC50: 9.22 ± 0.78 µM
BT-474; ratio of LD50 on HNME-E6/E7 to IC50 on BT-474
  SI of HNME/BT-474 (selective index): 2.24
HNME-E6/E7 [1]
  LD50 HNME-E6/E7: 20.67 ± 1.50 µM
[2]; TNBC and estrogen positive cell lines, read-out: anti-proliferative IC50 values, range over cell lines
  IC50: 3.94 to 9.22 µM
MDA-MB-468; 24 and 48 hours
  early and late apoptosis (in words): time dependent
MDA-MB-468; 48 hours, N=1
  rate of apoptosis: 28.00%
[5]
  BAX / bcl-2 protein expression, BAX/bcl-2 ratio: upregulation of BAX and downregulation of bcl-2; also recorded: positive increase in BAX/bcl-2 ratio
[6]
  BAX / bcl-2 protein expression, BAX/bcl-2 ratio: upregulation of BAX and downregulation of bcl-2; also recorded: positive increase in BAX/bcl-2 ratio
EMT markers on MCF-7
  E-cadherin expression: concentration dependent upregulation
  pan-cadherin expression: upregulated by compound 14 in a concentration dependent manner
[7]; 5 and 10 μM
  E-cadherin expression: concentration dependent upregulation
  pan-cadherin expression: upregulated by compound 14 in a concentration dependent manner
[7]; MDA-MB-231
  Focal adhesion kinase (FAK) expression: downregulated
[7]; cell line not named in the sentence (FIG. 3.24, FIG. 3.25)
  expression of β-catenin and its phosphorylated form: No significant changes
[7]; summary statement
  EMT (in words): reversal of EMT
[3]
  inhibition of blood vessels development vs control: 60.20±8.47%
HNME-E6/E7 [4]
  cell morphology of normal cells: induced morphological changes
[8]; 10 mg/kg i.p., three times per week
  day on which the tumor in the treated group started to grow: 24 days
[8]; [10]
  clinical toxicity to treated animals (in words): no notable clinical toxicity
  mice health and weight (in words): did not affect the mice health nor it had induced any changes to the mice weight
[8]; 10 mg/kg i.p., three times per week, day 45, n=5
  inhibition in tumor growth as compared to the placebo: 46.41±0.71% and 46.41%
[8]; during the 45 days
  survival rate of the mice: 100%
[8]; treated mice, day 45, n=5
  tumor volume: 1350±1350 mm^3
  tumor weight: 0.88±0.71 gm
[9]
  clinical observations, tolerability (in words): did not show any changes in the mice food intake, weights, or shape
